Experiment [1] relates to HCV genotype 1a (H77 strain) replicon in HUH-7 cells. The experiment can be described thus: HCV replicon luciferase reporter assay, genotype 1a. Particulars: Hepatitis C virus, Huh-7, 72 h, HCV genotype 1a replicon luciferase assay, 3 days incubation, range class, read-out: LE_1a (EC50, range). It is filed as cell-based. The method in brief: (§1)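 Replicon inhibition for both genotypes was measured as Renilla luciferase signal (EnduRen, 7.5 μM final, 2 h) after 3-day, 37° C exposure of replicon-bearing HUH-7 cells in 4% FCS DMEM, 0.5% DMSO. The 1b construct carries S1179I; the 1a H77 construct carries P1496L and S2204I. Twenty-point, 3-fold dilutions were fitted four-parametrically for EC50, and CC50 was taken from multiplexed Cell Titer-Blue.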

Experiment [2] has as its system HCV genotype 1b (Con1) replicon in HUH-7 cells. Description: HCV replicon luciferase reporter assay, genotype 1b. The experiment is classed as cell-based. To be noted: Hepatitis C virus, Huh-7, 72 h, HCV genotype 1b replicon luciferase assay, 3 days incubation, range class, read-out: LE_1b (EC50, range). The method in brief:
as §1
A general note: In antiviral work, replicon cells carry a viral genome segment that copies itself.

Broadly, the EC50 is the concentration needed to bring the measured effect to its halfway point.

Turning to `COc1ccc2c(O[C@@H]3C[C@H]4C(=O)N[C@]5(C(=O)NS(=O)(=O)C6(CF)CC6)C[C@H]5/C=C\CC[C@H](C)C[C@@H](C)[C@H](NC(=O)OC(C)(C)C(C)(F)F)C(=O)N4C3)ncc(C(F)(F)F)c2c1` [Compound 1166, 3,3-difluoro-2-methylbutan-2-yl((2R,6S,7R,9S,13aS,14aR,16aS,Z)-14a-(((1-(fluoromethyl)cyclopropyl)sulfonyl)carbamoyl)-2-((6-methoxy-4-(trifluoromethyl)isoquinolin-1-yl)oxy)-7,9-dimethyl-5,16-dioxo-1,2,3,5,6,7,8,9,10,11,13a,14,14a,15,16,16a-hexadecahydrocyclopropa[e]pyrrolo[1,2-a][1,4]diazacyclopentadecin-6-yl)carbamate], the EC50 in experiment [1] and in experiment [2] was 4.82 to 103 nM each time.

In the case of `COc1ccc2c(O[C@@H]3C[C@H]4C(=O)N[C@]5(C(=O)NS(=O)(=O)C6(CF)CC6)C[C@H]5/C=C\CC[C@@H](C)C[C@@H](C)[C@H](NC(=O)OC(C)(C)C(C)(F)F)C(=O)N4C3)ncc(C(F)(F)F)c2c1` [Compound 1167, 3,3-difluoro-2-methylbutan-2-yl((2R,6S,7R,9R,13aS,14aR,16aS,Z)-14a-(((1-(fluoromethyl)cyclopropyl)sulfonyl)carbamoyl)-2-((6-methoxy-4-(trifluoromethyl)isoquinolin-1-yl)oxy)-7,9-dimethyl-5,16-dioxo-1,2,3,5,6,7,8,9,10,11,13a,14,14a,15,16,16a-hexadecahydrocyclopropa[e]pyrrolo[1,2-a][1,4]diazacyclopentadecin-6-yl)carbamate], the EC50 in experiment [1] and in experiment [2] was less than 5.46 nM throughout.

`COc1ccc2c(O[C@@H]3C[C@H]4C(=O)N[C@]5(C(=O)NS(=O)(=O)C6(CF)CC6)C[C@H]5/C=C\CC[C@H](C)C[C@@H](C)[C@H](NC(=O)OC(C)(C)C(F)(F)F)C(=O)N4C3)nc(C(F)(F)F)cc2c1` [Compound 1168, 1,1,1-trifluoro-2-methylpropan-2-yl((2R,6S,7R,9S,13aS,14aR,16aS,Z)-14a-(((1-(fluoromethyl)cyclopropyl)sulfonyl)carbamoyl)-2-((6-methoxy-3-(trifluoromethyl)isoquinolin-1-yl)oxy)-7,9-dimethyl-5,16-dioxo-1,2,3,5,6,7,8,9,10,11,13a,14,14a,15,16,16a-hexadecahydrocyclopropa[e]pyrrolo[1,2-a][1,4]diazacyclopentadecin-6-yl)carbamate]: the concentration giving a half-maximal response (EC50) in experiment [1] and in experiment [2] was 4.82 to 103 nM in each case.

Turning to `COc1ccc2c(O[C@@H]3C[C@H]4C(=O)N[C@]5(C(=O)NS(=O)(=O)C6(CF)CC6)C[C@H]5/C=C\CC[C@@H](C)C[C@@H](C)[C@H](NC(=O)OC(C)(C)C(F)(F)F)C(=O)N4C3)nc(C(F)(F)F)cc2c1` [Compound 1169, 1,1,1-trifluoro-2-methylpropan-2-yl((2R,6S,7R,9R,13aS,14aR,16aS,Z)-14a-(((1-(fluoromethyl)cyclopropyl)sulfonyl)carbamoyl)-2-((6-methoxy-3-(trifluoromethyl)isoquinolin-1-yl)oxy)-7,9-dimethyl-5,16-dioxo-1,2,3,5,6,7,8,9,10,11,13a,14,14a,15,16,16a-hexadecahydrocyclopropa[e]pyrrolo[1,2-a][1,4]diazacyclopentadecin-6-yl)carbamate], the EC50 in experiment [1] and in experiment [2] was less than 5.46 nM each time.

For `COc1ccc2c(O[C@@H]3C[C@H]4C(=O)N[C@]5(C(=O)NS(=O)(=O)C6(CF)CC6)C[C@H]5/C=C\CC[C@H](C)C[C@@H](C)[C@H](NC(=O)OC(C)(C)C(C)(F)F)C(=O)N4C3)nc(C(F)(F)F)cc2c1` [Compound 1170, 3,3-difluoro-2-methylbutan-2-yl((2R,6S,7R,9S,13aS,14aR,16aS,Z)-14a-(((1-(fluoromethyl)cyclopropyl)sulfonyl)carbamoyl)-2-((6-methoxy-3-(trifluoromethyl)isoquinolin-1-yl)oxy)-7,9-dimethyl-5,16-dioxo-1,2,3,5,6,7,8,9,10,11,13a,14,14a,15,16,16a-hexadecahydrocyclopropa[e]pyrrolo[1,2-a][1,4]diazacyclopentadecin-6-yl)carbamate], the EC50 in experiment [1] and in experiment [2] was 4.82 to 103 nM in each case.

On to `COc1ccc2c(O[C@@H]3C[C@H]4C(=O)N[C@]5(C(=O)NS(=O)(=O)C6(CF)CC6)C[C@H]5/C=C\CC[C@@H](C)C[C@@H](C)[C@H](NC(=O)OC(C)(C)C(C)(F)F)C(=O)N4C3)nc(C(F)(F)F)cc2c1` [Compound 1171, 3,3-difluoro-2-methylbutan-2-yl((2R,6S,7R,9R,13aS,14aR,16aS,Z)-14a-(((1-(fluoromethyl)cyclopropyl)sulfonyl)carbamoyl)-2-((6-methoxy-3-(trifluoromethyl)isoquinolin-1-yl)oxy)-7,9-dimethyl-5,16-dioxo-1,2,3,5,6,7,8,9,10,11,13a,14,14a,15,16,16a-hexadecahydrocyclopropa[e]pyrrolo[1,2-a][1,4]diazacyclopentadecin-6-yl)carbamate], for which the EC50 in experiment [1] and in experiment [2] was less than 5.46 nM each time.

Turning to `COc1ccc2c(O[C@@H]3C[C@H]4C(=O)N[C@]5(C(=O)NS(=O)(=O)C6(CF)CC6)C[C@H]5/C=C\CC[C@H](C)C[C@@H](C)[C@H](NC(=O)OC5(C(F)(F)F)CCCOC5)C(=O)N4C3)nc(C(F)(F)F)cc2c1` (stereo partly drawn) [Compound 1172, 3-(trifluoromethyl)tetrahydro-2H-pyran-3-yl((2R,6S,7R,9S,13aS,14aR,16aS,Z)-14a-(((1-(fluoromethyl)cyclopropyl)sulfonyl)carbamoyl)-2-((6-methoxy-3-(trifluoromethyl)isoquinolin-1-yl)oxy)-7,9-dimethyl-5,16-dioxo-1,2,3,5,6,7,8,9,10,11,13a,14,14a,15,16,16a-hexadecahydrocyclopropa[e]pyrrolo[1,2-a][1,4]diazacyclopentadecin-6-yl)carbamate], the EC50 in experiment [1] was more than 87.4 nM; in experiment [2], 4.82 to 103 nM.

Consider `COc1ccc2c(O[C@@H]3C[C@H]4C(=O)N[C@]5(C(=O)NS(=O)(=O)C6(CF)CC6)C[C@H]5/C=C\CC[C@@H](C)C[C@@H](C)[C@H](NC(=O)OC5(C(F)(F)F)CCCOC5)C(=O)N4C3)nc(C(F)(F)F)cc2c1` (stereo partly drawn) [Compound 1173, 3-(trifluoromethyl)tetrahydro-2H-pyran-3-yl((2R,6S,7R,9R,13aS,14aR,16aS,Z)-14a-(((1-(fluoromethyl)cyclopropyl)sulfonyl)carbamoyl)-2-((6-methoxy-3-(trifluoromethyl)isoquinolin-1-yl)oxy)-7,9-dimethyl-5,16-dioxo-1,2,3,5,6,7,8,9,10,11,13a,14,14a,15,16,16a-hexadecahydrocyclopropa[e]pyrrolo[1,2-a][1,4]diazacyclopentadecin-6-yl)carbamate], for which the EC50 in experiment [1] and in experiment [2] was less than 5.46 nM each time.

Consider `COc1ccc2c(O[C@@H]3C[C@H]4C(=O)N[C@]5(C(=O)NS(=O)(=O)C6(CF)CC6)C[C@H]5/C=C\CC[C@H](C)C[C@@H](C)[C@H](NC(=O)OC(C)(C)C(F)(F)F)C(=O)N4C3)ncc(C(F)(F)F)c2c1` [Compound 1174, 1,1,1-trifluoro-2-methylpropan-2-yl((2R,6S,7R,9S,13aS,14aR,16aS,Z)-14a-(((1-(fluoromethyl)cyclopropyl)sulfonyl)carbamoyl)-2-((6-methoxy-4-(trifluoromethyl)isoquinolin-1-yl)oxy)-7,9-dimethyl-5,16-dioxo-1,2,3,5,6,7,8,9,10,11,13a,14,14a,15,16,16a-hexadecahydrocyclopropa[e]pyrrolo[1,2-a][1,4]diazacyclopentadecin-6-yl)carbamate], for which the EC50 in experiment [1] and in experiment [2] was 4.82 to 103 nM in each case.

For the origin of these results see patent US9499550B2 (BRISTOL-MYERS SQUIBB COMPANY, priority 2012, dated 2016).
